Entries after “also recorded” stand apart in the source; their conditions may differ. Blank lines part the entries; values can stand above or below the compound they belong to.
Tests used:
[1] = tested on: cellular proteins; settings: NAC at the time of TNCB sensitization; Bruchhausen et al.; cited from earlier work
[2] = tested on: OXA-treated BALB/c mice; settings: Särnstrand et al.; cited from earlier work
[3] = tested on: BALB/c mice; settings: orally administered 1.6 g/kg, Senaldi et al.; cited from earlier work
[4] = tested on: CD11c+ BM-DCs; test: MBB staining and flow cytometry of cellular thiol in BM-DCs; settings: P<0.05
[5] = tested on: BM-DCs from old mice; test: CHS response by adoptive transfer of DNBS-pulsed BM-DCs treated ex vivo; assay type: in vivo, mouse; settings: DNFB challenge of young recipients
Method: For sensitization (day 0), 0.5×10^6 DNBS-treated DCs were injected subcutaneously with 100 μL of saline into the flanks of recipient mice. Five days later, mice were challenged by means of DNFB application to the ear. Mice injected with the same number of unmodified DCs or mock treated and challenged with vehicle alone served as negative controls.

[6] = tested on: γ-GCLS mRNA; settings: BM-DCs from old animals; SFN 5 μmol/L for 24 hours; P<0.05
Method: (§1) FIG. 9. […] A. Total RNA was extracted from CD11c^+ BM-DCs to perform real-time PCR for p2E.
(§2) Total RNA was extracted from DCs or tissues by using the RNeasy Mini Kit (Qiagen, Inc, Valencia, Calif.), according to the manufacturer's recommendations. Contaminating DNA was removed with a DNA-free kit (Ambion, Inc, Austin, Tex.). Total RNA was spectrophotometrically quantitated. A 1 μg RNA sample was reverse transcribed by using the iScriptTMcDNA Synthesis Kit (Bio-Rad Laboratories, Hercules, Calif.). The cDNA templates were stored at −40° C.
(§3) PCR was carried out with an iQTM SYBR Green Supermix (Bio-Rad Laboratories) by using an iCycler (Bio-Rad Laboratories), according to the manufacturer's instructions. The sequences for the primers for IFN-γ, IL-4, T-bet, heme oxygenase 1, Nrf2, NQO1, glutathione S-transferase, GCLS, GPx, and β-actin are summarized in Table 1. The final PCR mixture contained 1 μL of cDNA template and 400 nM of the forward and reverse primers in a final volume of 25 μL. Samples were run concurrently with a standard curve prepared from the PCR products. Serial dilutions were performed to obtain appropriate template concentrations. B-Actin was used as a reference gene for the recovery of RNA, as well as reverse transcription efficiency. Melting curve analysis was used to confirm specific replicon formation.

[7] = tested on: heme oxygenase 1 mRNA; settings: BM-DCs from old animals; SFN 5 μmol/L for 24 hours; P<0.05
Method: as §1, §2, §3

[8] = tested on: NQO1 mRNA; settings: BM-DCs from old animals; SFN 5 μmol/L for 24 hours; P<0.001
Method: as §1, §2, §3

[9] = tested on: old female C57BL/6 (B6) mice; settings: SFN gavage
Source text: (§4) Young (2-4 months) and old (19-22 mouths) female C57BL/6 (B6) mice were obtained from the Jackson Laboratory and the National Institute of Aging colony (Bethesda, Md.), respectively. Nrf2^+/+ and nrf2^−/− mice, which were initially obtained from Dr. Y. Kan (Chan and Kan, Proc Natl Acad Sci USA, 96:1231-6 (1997)), were backcrossed onto a C57BL/6 background for 7 generations.
Oxazalone (OXA; 3%), dissolved in 100% ethanol, was applied on the shaved mouse abdomen on day 0. Control animals were exposed to vehicle alone. Six days after sensitization, mice were challenged on both sides of both ears by means of epicutaneous application of 20 μL of a 1% OXA solution (Gaspari and Katz, Current Protocols in immunology, John Wiley & Sons (Hoboken, N.J., 2003)). 2,4-Dinitro-1-fluambenzene (DNFB) sensitization was accomplished by the application of 0.5% of the chemical dissolved in 4:1 acetone/olive oil onto the shaved abdomen (days 0 and 1). On day 5, mice were challenged by means of epicutaneous application of 0.2% DNFB on both ears. Ear thickness was measured before and 24 and 48 hours after challenge by using a dial thickness gauge (Mitutoyo, Japan). Mice were killed 48 hours after challenge, and ear tissues were removed for RNA extraction and cytokine message expression, as well as for hematoxylin and eosin staining. […]

[10] = SFN administration by gavage
Method: as §4
(§5) SFN (9 μmol/d per mouse) in 0.2 mL, of corn oil was administered by means of gavage on consecutive days. The control group received corn oil alone. Pretreatment with SFN or corn oil commenced 5 days before and was carried through until the performance of the antigen challenge (i.e., 11 days total).

[11] = tested on: Nrf2-mediated phase II enzyme (p2E) gene expression; settings: absent in Nrf2-deficient animals; recent studies; cited from earlier work
[12] = tested on: p2Es (NQO1, glutathione S-transferase, γ-GCLS, and GPx) mRNA; settings: SFN administration versus livers of control animals
Method: as §5, §2
as §3, with “B-Actin was used as a reference gene for the recovery of RNA, as well as reverse transcription efficiency. Melting curve analysis was used to confirm specific replicon formation.” left out

[13] = tested on: IFN-γ mRNA; settings: old mice; SFN gavage; 48 hours after DNFB challenge
Method: (§6) Oxazalone (OXA; 3%), dissolved in 100% ethanol, was applied on the shaved mouse abdomen on day 0. Control animals were exposed to vehicle alone. Six days after sensitization, mice were challenged on both sides of both ears by means of epicutaneous application of 20 μL of a 1% OXA solution (Gaspari and Katz, Current Protocols in immunology, John Wiley & Sons (Hoboken, N.J., 2003)). 2,4-Dinitro-1-fluambenzene (DNFB) sensitization was accomplished by the application of 0.5% of the chemical dissolved in 4:1 acetone/olive oil onto the shaved abdomen (days 0 and 1). On day 5, mice were challenged by means of epicutaneous application of 0.2% DNFB on both ears. Ear thickness was measured before and 24 and 48 hours after challenge by using a dial thickness gauge (Mitutoyo, Japan). Mice were killed 48 hours after challenge, and ear tissues were removed for RNA extraction and cytokine message expression, as well as for hematoxylin and eosin staining.
as §2
(§7) PCR was carried out with an iQTM SYBR Green Supermix (Bio-Rad Laboratories) by using an iCycler (Bio-Rad Laboratories), according to the manufacturer's instructions. The sequences for the primers for IFN-γ, IL-4, T-bet, heme oxygenase 1, Nrf2, NQO1, glutathione S-transferase, GCLS, GPx, and β-actin are summarized in Table 1. The final PCR mixture contained 1 μL of cDNA template and 400 nM of the forward and reverse primers in a final volume of 25 μL. […]
(§8) IFN-γ and IL-4 message levels were measured in the ear tissues that were taken 48 hours after challenge to determine whether the induction of the CHS response is accompanied by polarized T cell differentiation.

[14] = tested on: T-bet mRNA; settings: old versus young sensitized animals; SFN gavage; DNFB challenge
Method: as §6, §2, §7, §8

[15] = tested on: IL-4 mRNA; settings: old mice; SFN gavage; 48 hours after DNFB challenge
Method: as §6, §2, §7, §8

[16] = tested on: GATA-3; settings: SFN gavage; DNFB challenge
Method: as §8

[17] = tested on: Nrf2; settings: old rats; cited from earlier work

SMILES: CC(=O)N[C@@H](CS)C(=O)O [NAC, N-acetylcysteine]
binding of the contact sensitizer TNCB to cellular proteins [1]: block the binding | ear thickness [2]: dose-dependent increase | TNCB response [3]: reduced the TNCB response | increase in cellular thiol content (MBB staining) ([4]; BM-DCs, NAC exposure (FIG. 8: 20 mmol/L for 24 hours)): 25% | CHS response in recipients of DNBS-pulsed DCs from old animals ([5]; ex vivo NAC treatment of BM-DCs (20 mM for 1 hour), washed): restored the CHS response; also recorded: increases the CHS response; also recorded: reverses the age-related decrease in the CHS response

heme oxygenase 1 mRNA level [7]: significant upregulation
SMILES: C[S+]([O-])CCCCN=C=S (centres unmarked) [SFN, sulforaphane]
γ-GCLS mRNA level [6]: significant upregulation | NQO1 mRNA level [8]: significant upregulation | ear-swelling response in nonsensitized (control) animals ([9]; nonsensitized control animals): no effect | decrease in lymphocyte infiltration and intercellular edema in ear (hematoxylin and eosin) ([9]; old mice, ear histology 48 hours after challenge): could be reversed | effects on overall well-being or body weight [10]: Neither the CHS procedure nor SFN administration had any effects | Nrf2-mediated phase II enzyme (p2E) gene expression [11]: significantly activates | p2E mRNA levels in liver (NQO1, glutathione S-transferase, γ-GCLS, GPx) [12]: message levels for 3 of the 4 genes were increased | IFN-γ message level in ear tissue [13]: significantly increased | T-bet message level in ear tissue [14]: prevented this decrease to a significant degree | IL-4 message level in ear tissue [15]: not significantly affected | increase in cellular thiol levels (MBB staining) ([4]; BM-DCs from old animals, SFN 5 μmol/L for 24 hours): 15% | CHS response in recipients of DNBS-pulsed DCs from old animals ([5]; ex vivo SFN treatment of BM-DCs (5 μM for 24 hours)): could restore the CHS response; also recorded: reverses the age-related decrease in the CHS response | expression of GATA-3 [16]: Neither aging nor SFN treatment had an effect

SMILES: O=C(O)CCCCC1CCSS1 (stereo not drawn) [α-lipoic acid]
nuclear Nrf2 levels, γ-CLC expression and GSH production [17]: increase nuclear Nrf2 levels in parallel with increased γ-CLC expression and GSH production

Source: patent publication US20130344106A1, “Methods and Compositions for Improving Immune Response by a Nutraceutical Antioxidant” (priority 2008, published 2013)
